According to patent US11312692B1, “Polymorphic compounds and uses thereof” (Aldeyra Therapeutics, Inc., priority 2018, dated 2022):

Key:
Assay type in all cases: physicochemical
[1] = Aqueous solubility at pH 1, 4.5 and 6.8 (HPLC concentration, XRPD of solids); conditions: for solubility: thermodynamic from solid, shaken at ambient temperature
Procedure: Approximately 20 mg of each of Compounds 1 and 5-8 was weighed into three 2 mL vials. The appropriate pH buffer was added to achieve pH values of pH 1, 4.5 and 6.8. The pH was measured after buffer addition and the pH adjusted if required back to the appropriate pH. […]

[2] = Dynamic Vapour Sorption (DVS) with post-DVS XRPD; conditions: for solid form post-DVS by XRPD: after DVS cycles
Procedure: Dynamic Vapour Sorption (DVS): approximately, 10 mg of sample was placed into a mesh vapour sorption balance pan and loaded into a DVS-1 dynamic vapour sorption balance, a DVS Intrinsic dynamic vapour sorption balance or a DVS Advantage dynamic vapour sorption balance by Surface Measurement Systems. The sample was subjected to a ramping profile from 40-90% relative humidity (RH) at 10% increments, maintaining the sample at each step until a stable weight had been achieved (dm/dt 0.004%, minimum step length 30 minutes, maximum step length 500 minutes) at 25° C. After completion of the sorption cycle, the sample was dried using the same procedure to 0% RH and then a second sorption cycle back to 40% RH. Two cycles were performed. The weight change during the sorption/desorption cycles were plotted, allowing for the hygroscopic nature of the sample to be determined. XRPD analysis was then carried out on any solid retained.

[3] = Conversion of solid form on grinding (XRPD)
Procedure: (§1) Form C material was produced through crash cooling to −18° C. in acetonitrile, the material produced through this scale-up was identified as being similar to the previous Form C material.

[4] = 1 week stability (40° C./75% RH, 80° C., ambient), XRPD and HPLC purity
Procedure: Scale up of both Forms B and C was carried out on the 200 mg scale. Form B was produced from acetone through evaporation. Characterisation of the solid, indicated the material had long lath-like crystals, with the remaining parameters consistent with the previously produced Form B material. Further analysis of the solid by NMR and mass spectrometry identified the material as an imine.
as §1

CC(C)(O)c1cc2oc(-c3ccccc3)nc2cc1N [Compound 1 Form A]
solubility ([1]; aqueous buffer, pH 4.5 buffer): ≥ 500 mg/mL | solubility ([1]; aqueous buffer, pH 6.8 buffer): ≥ 500 mg/mL | solubility ([1]; simulated gastric fluid, pH 1 buffer): ≥ 500 mg/mL

CC(C)(O)c1cc2oc(-c3ccccc3)nc2cc1N [Compound A, Form A]
hygroscopic nature (DVS) ([2]; DVS, 25° C.): slightly hygroscopic | uptake at 90% RH (DVS) ([2]; DVS, 25° C., 90% RH): 0.6% | solid form post-DVS by XRPD [2]: consistent with the input material

CC(C)(O)c1cc2oc(-c3ccccc3)nc2cc1N [Compound A, Form C]
hygroscopic nature (DVS) ([2]; DVS, 25° C.): slightly hygroscopic | solid form post-DVS by XRPD [2]: Form A | solid form when ground [3]: mixture of Forms A and C | drop in purity over the stability period ([4]; 1 week, 40° C./75% RH, versus input Form C purity): 0.1% | change in purity over the stability period ([4]; 1 week, 80° C.): no change | change in purity over the stability period ([4]; 1 week, ambient conditions): no change | solid form after 1 week stability by XRPD ([4]; all three conditions (40° C./75% RH, 80° C., ambient)): converted to Form A

CC(C)(O)c1cc2oc(-c3ccccc3)nc2cc1N.CS(=O)(=O)O [Form A of Compound 1]
aqueous solubility compared with other salt forms ([1]; versus Form C of Compound 5, Form A of Compound 6, Form B of Compound 7, Form B of Compound 8, pH 1, 4.5, 6.8 buffers, ca. 20 hours, ambient): far more soluble
